# Test results from patent US10760052B2, “Method of inhibiting tau phosphorylation” (priority 2012, dated 2020).
# Experiments:
# FLNA [1] = target: T1, FLNA (Homo sapiens, UniProt P21333); assay: [3H]NLX competition binding to FLNA in A7 cell membranes; conditions: 0.5 nM [3H]NLX, N=4, read-out: IC50-L, inhibition of [3H]NLX binding
# T1 construct: validate the use of that 5-mer peptide as a surrogate for the complete molecule in the assays carried out herein; host or cells: A7 cells
# [2] = test system: tau phosphorylated at S202, T231 and T181; assay: Postmortem human frontal cortical synaptosomes: Aβ42-induced tau phosphorylation with VAKGL decoy; format: cell-based; conditions: postmortem control frontocortical tissue
# Experimental: FIG. 34 VAKGL (SEQ ID NO: 1) pentapeptide (10 μM) blocks Compound C0105's prevention of tau phosphorylation. Again using postmortem frontal cortical synaptosomes, the VAKGL pentapeptide blocks C0105's reduction in tau phosphorylation at all three phosphorylation sites found in neurofibrillary tangles. Western blots (FIG. 34A), in which numerals outside of and to the left of the blots are as discussed before, were analyzed by densitometric quantitation (FIG. 34B). Data are means±SEM. n=3. *p<0.01 vs. the respective basal level; # p<0.01 vs. Aβ42-exposed tissues.
# In postmortem control frontocortical tissue, the FLNA pentapeptide binding site of Compound C0105 (VAKGL of SEQ ID NO: 1) was used as a decoy to block the attenuation of FLNA association with α7nAChR and TLR4 by Compound C0105 (FIG. 33).
# [3] = target: T2, FLNA-α7nAChR/TLR4 and Aβ42-α7nAChR complexes (Homo sapiens, UniProt P21333); assay: FLNA-α7nAChR/TLR4 and Aβ42-α7nAChR associations in AD and Aβ42-treated control lymphocytes; format: cell-based; conditions: 1 nM, 30 minutes
# T2 construct: endogenous in cells; host or cells: lymphocytes of AD patients and control subjects
# Experimental: Because lymphocytes contain α7nAChR and TLR4, whether the associations of these receptors with FLNA are increased in the lymphocytes of AD patients and whether Compound C0105 treatment ex vivo could disrupt these associations were assessed. Also assayed was the effect of Compound C0105 on Aβ42-α7nAChR complexes in AD lymphocytes and Aβ42-treated lymphocytes from age-matched control subjects.
# [4] = test system: tau protein phosphorylated at S202, T231 and T181; assay: Aβ42-induced tau phosphorylation in rat frontal cortical synaptosomes; format: cell-based
# Experimental: FIG. 4 in four panels as FIGS. 4A-4D, illustrates that FLNA-binding compounds reduce tau phosphorylation at all three phosphorylation sites. […] The three phosphoepitopes of tau were detected in immunoprecipitates using specific antibodies. […] Immunoprecipitates were determined by Western blotting (FIGS. 4A-4C) and quantified by densitometry (FIG. 4D).
# FIG. 42, also in two panels, FIGS. 42A and 42B, illustrates that FLNA-binding compounds reduce tau phosphorylation at all three phosphorylation sites using the compounds and concentrations of FIG. 41 using immunoprecipitation and Western blotting. […] The three phosphoepitopes of tau were detected in immunoprecipitates using specific antibodies.
# FIG. 44, also in two panels, FIG. 44A and FIG. 44B, illustrates that FLNA-binding compounds reduce tau phosphorylation at all three phosphorylation sites using the compounds and concentrations of FIG. 43 using immunoprecipitation and Western blotting. […] The three phosphoepitopes of tau were detected in immunoprecipitates using specific antibodies. Aβ42 strongly promotes tau phosphorylation at all three sites.
# FIG. 46, also in two panels, FIG. 46A and FIG. 46B, illustrates that FLNA-binding compounds reduce tau phosphorylation at all three phosphorylation sites using the compounds and concentrations of FIG. 45 using immunoprecipitation and Western blotting. […] The three phosphoepitopes of tau were detected in immunoprecipitates using specific antibodies. Aβ42 strongly promotes tau phosphorylation at all three sites.
# The three primary phosphorylation sites on tau protein were examined for their phosphorylation levels compared to total tau protein content. Tau, phosphorylated at these three sites, is a constituent of NFTs. Consistent with effects on FLNA-α7nAChR association, and ERK2 activation, all of the FLNA-binding compounds assayed, with 10 minute pre-incubation, decreased Aβ42-induced phosphorylation of tau at all three sites (FIG. 4).
# [5] = test system: voltage-gated calcium channel-mediated Ca2+ influx; format: cell-based, human; conditions: postmortem AD tissue; 1 nM
# [6] = test system: voltage-gated Ca2+ channel mediated Ca2+ influx; format: cell-based, rat; conditions: slice cultures
# [7] = target: FLNA pentamer VAKGL of SEQ ID NO: 1 (Homo sapiens, UniProt P21333); assay: [3H]NLX displacement from biotinylated VAKGL peptide; conditions: Bn-VAKGL peptide; single IC50; N=4; read-out: IC50, inhibition of [3H]NLX binding
# Experimental: Nonspecific binding was defined by 1 mM NTX. The reaction was terminated by addition of 1 ml of ice-cold binding medium. The [^3H]NLX-bound Bn-VAKGL was trapped by incubation with […] NeutrAvidin®-agarose (Thermo), followed by centrifugation. Following two 1.5 ml washes with PBS, the bound [^3H]NLX was determined using scintillation spectrometry. […] N=4.
# α7nAChR-FLNA complex = target: T3, α7nAChR-FLNA complex (Homo sapiens, UniProt P21333); assay: Postmortem human frontal cortex: α7nAChR-FLNA association; format: cell-based; conditions: AD and Aβ42-treated control tissue; 0.1 or 1 nM
# T3 construct: from tissue; host or cells: postmortem frontal cortex slices / synaptosomes (AD and control subjects)
# Experimental: Postmortem frontal cortex tissues were gradually thawed (from −80° C. to −20° C.) and were sliced using a chilled McIlwain tissue chopper (200 μm×200 μm×3 mm). […] Following two additional washes with 1 ml of ice-cold K-R, brain slices were suspended in 1 ml of K-R.
# Incubation continued for 1 hour in the dark to minimize light destruction of the test agents. […] Reaction was terminated by the addition of 1.5 ml of ice-cold Ca^2+-free K-R. Tissue slices were harvested by a brief centrifugation and used as the tissue sources for various assays.
# FLNA [8] = target: T1, FLNA; assay: [3H]NLX competition binding to FLNA in SK-N-MC cell membranes; conditions: read-out: IC50-L, inhibition of [3H]NLX binding
# T1 sequence (P21333 whole entry): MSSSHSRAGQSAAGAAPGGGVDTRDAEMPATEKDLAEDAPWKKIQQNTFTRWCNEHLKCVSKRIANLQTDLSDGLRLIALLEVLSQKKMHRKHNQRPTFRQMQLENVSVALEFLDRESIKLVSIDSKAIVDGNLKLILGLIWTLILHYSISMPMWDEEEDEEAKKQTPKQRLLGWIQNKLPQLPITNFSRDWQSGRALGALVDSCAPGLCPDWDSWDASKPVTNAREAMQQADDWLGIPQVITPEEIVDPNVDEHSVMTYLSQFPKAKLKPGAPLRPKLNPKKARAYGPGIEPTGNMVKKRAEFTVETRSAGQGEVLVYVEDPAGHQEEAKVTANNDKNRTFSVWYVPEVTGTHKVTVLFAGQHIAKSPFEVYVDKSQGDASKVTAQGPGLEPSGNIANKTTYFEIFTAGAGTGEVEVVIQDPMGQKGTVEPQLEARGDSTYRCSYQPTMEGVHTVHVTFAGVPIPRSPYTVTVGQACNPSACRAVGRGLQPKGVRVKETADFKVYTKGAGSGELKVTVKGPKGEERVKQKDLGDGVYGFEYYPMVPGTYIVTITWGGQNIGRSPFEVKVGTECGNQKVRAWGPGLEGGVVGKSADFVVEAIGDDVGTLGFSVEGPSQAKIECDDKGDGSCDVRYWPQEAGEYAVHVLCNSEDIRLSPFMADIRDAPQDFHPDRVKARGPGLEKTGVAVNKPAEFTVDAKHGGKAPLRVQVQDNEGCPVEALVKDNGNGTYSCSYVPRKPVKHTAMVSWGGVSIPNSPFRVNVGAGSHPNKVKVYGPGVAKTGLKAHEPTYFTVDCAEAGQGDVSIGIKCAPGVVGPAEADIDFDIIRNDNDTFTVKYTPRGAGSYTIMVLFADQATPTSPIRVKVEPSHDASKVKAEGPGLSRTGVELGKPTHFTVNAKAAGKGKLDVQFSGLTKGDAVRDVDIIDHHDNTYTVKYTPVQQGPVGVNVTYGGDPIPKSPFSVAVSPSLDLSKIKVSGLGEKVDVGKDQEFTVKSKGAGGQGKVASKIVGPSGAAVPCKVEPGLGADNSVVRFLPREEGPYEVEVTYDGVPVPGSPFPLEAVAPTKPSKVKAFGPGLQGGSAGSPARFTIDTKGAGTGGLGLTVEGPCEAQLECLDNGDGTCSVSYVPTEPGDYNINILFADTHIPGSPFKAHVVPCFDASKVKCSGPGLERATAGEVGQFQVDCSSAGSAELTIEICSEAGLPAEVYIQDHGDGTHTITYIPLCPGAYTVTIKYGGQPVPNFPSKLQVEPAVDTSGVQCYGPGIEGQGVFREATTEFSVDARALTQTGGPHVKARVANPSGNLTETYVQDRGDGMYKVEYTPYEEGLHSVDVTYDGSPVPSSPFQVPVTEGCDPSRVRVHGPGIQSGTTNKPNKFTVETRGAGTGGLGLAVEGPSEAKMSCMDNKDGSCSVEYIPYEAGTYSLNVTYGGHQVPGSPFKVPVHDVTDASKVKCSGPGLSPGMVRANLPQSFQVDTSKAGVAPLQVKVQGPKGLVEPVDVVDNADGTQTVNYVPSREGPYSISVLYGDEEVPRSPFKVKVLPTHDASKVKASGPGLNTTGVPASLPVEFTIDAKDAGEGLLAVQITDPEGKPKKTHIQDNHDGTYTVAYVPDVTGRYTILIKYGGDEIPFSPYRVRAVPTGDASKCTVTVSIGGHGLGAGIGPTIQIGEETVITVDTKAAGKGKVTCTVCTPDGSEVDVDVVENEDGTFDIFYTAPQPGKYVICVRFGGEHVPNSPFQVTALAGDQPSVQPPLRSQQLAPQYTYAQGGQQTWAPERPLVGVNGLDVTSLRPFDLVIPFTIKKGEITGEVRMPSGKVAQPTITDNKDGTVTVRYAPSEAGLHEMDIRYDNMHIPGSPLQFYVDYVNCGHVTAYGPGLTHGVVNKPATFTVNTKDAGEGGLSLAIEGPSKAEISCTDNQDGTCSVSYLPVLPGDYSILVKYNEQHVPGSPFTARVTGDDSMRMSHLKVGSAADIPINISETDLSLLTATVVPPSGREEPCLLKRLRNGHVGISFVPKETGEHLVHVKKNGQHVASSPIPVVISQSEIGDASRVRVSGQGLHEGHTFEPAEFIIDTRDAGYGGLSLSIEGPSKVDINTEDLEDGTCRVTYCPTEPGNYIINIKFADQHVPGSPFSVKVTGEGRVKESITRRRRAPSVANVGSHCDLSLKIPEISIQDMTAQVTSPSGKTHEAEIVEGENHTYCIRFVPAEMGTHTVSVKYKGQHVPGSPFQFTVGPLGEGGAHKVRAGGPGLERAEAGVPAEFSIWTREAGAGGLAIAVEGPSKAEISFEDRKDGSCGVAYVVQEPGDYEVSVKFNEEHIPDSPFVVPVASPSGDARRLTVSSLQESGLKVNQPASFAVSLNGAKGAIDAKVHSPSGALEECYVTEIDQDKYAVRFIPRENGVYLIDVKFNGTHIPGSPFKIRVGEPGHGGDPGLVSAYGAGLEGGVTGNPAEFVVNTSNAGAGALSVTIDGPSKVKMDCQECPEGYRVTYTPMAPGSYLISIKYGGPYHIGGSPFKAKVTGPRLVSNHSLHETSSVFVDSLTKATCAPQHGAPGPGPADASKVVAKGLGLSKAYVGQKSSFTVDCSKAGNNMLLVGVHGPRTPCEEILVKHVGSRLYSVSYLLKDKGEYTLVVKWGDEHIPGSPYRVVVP
structure (smiles),measurement,setting,value
CN1CCC2(CC1)NCC(=O)N2Cc1ccccc1 [Compound C0105],IC50,FLNA [1],0.226 nM
same,Aβ42-induced tau phosphorylation,[2],inhibits tau phosphorylation
same,FLNA associations with α7nAChR and TLR4 in lymphocytes,[3],significantly reduced
same,"Aβ42-induced tau phosphorylation at S202, T231 and T181","[4]; 1 or 10 nM compound, simultaneously or 10-minute pretreatment, Aβ42 0.1 μM",reduced this phosphorylation at both concentrations
same,Aβ42-induced phosphorylation of tau,[4]; simultaneous administration,reduced tau phosphorylation with simultaneous administration
same,Deficit in depolarization-induced calcium influx,[5],attenuated the deficit
same,Aβ42-induced reduction of K+-evoked calcium influx,[6],completely reversed by 1 and 10 nM
same,IC50,[7],0.00276 nM
same,FLNA association with α7nAChR,α7nAChR-FLNA complex,reduces Aβ42-induced FLNA association with α7nAChR and TLR4
same,IC50,FLNA [8],0.111 nM
